Data reported in patent publication US11205502B2, “Processing method and processing apparatus for efficacy of combined drug” (Institute of radiation medicine, academy of military …, priority 2015, dated 2021).

Tested on: human hepatocellular carcinoma cell HepG2
Experiment: MTT method, growth inhibition of HepG2 by NX, TX and NX/TX combined application; expected additive effect by equivalent dose conversion
Assay type: cell-based
Settings: for Efficacy of NX / Efficacy of TX: from fitted single-use equation
From the text: Title: the nitrohydroxyl compound (NX) is an anti-infectious drug. […] Taxol (TX) is an anticancer drug frequently used in clinic. In an NX/TX combined application, the growth of a human hepatocellular carcinoma cell HepG2 is inhibited in an MTT method. A method for quantitatively processing relevant indexes of synergistic/additive/antagonistic effect is described, which provides a reference for research and development of a novel anticancer compound.
Step 1: a dose-effect relationship table of dose levels of each single drug and each member in a combined group is prepared, and a respective dose-effect relationship curve equation is fitted. For dose-effect relationship data among the NX, the TX and the single drug, the NX+TX at a fixed proportion in combined use (1/1, μg/ml+ng/ml), and dose-effect relationship data of the TX at a fixed concentration (2 ng/ml)+the NX at different concentrations in the combined use, see a table 1.
Step 2: the dose is converted sequentially, and each line of the dose-effect relationship data formed into an expected additive efficacy curve band under a combined condition is calculated.
Descriptions on numerical calculation in each column of the table 2: (3) column: data in (2) column are calculated with the formula (2); (4) column: data in (3) column are calculated with the formula (1); (5) column: (1) column+(4) column; (6) column: data in (5) column are calculated with the formula (1).
Descriptions on numerical calculation in each column: (7) column: data in (1) column are calculated with the formula (1); (8) column: data in (7) column are calculated with the formula (2); (9) column: (2) column+(8) column; (10) column: data in (9) column are calculated with the formula (2); “-” indicates to be beyond the dose-effect range of the TX.
Descriptions on numerical calculation in each column: (3) column: from the table 2; (4) column: from the table 3; (5) column: from the table 1; (6) column: (5) column data/(3) column data; (7) column: (5) column data/(4) column data; (8) column: standards are referred to the previous CId calculation.

Structure (SMILES): O=[N+]([O-])c1ccc(O)c2ncccc12 [NX, nitrohydroxyl compound]
- Inhibition rate (NX 0.5 μg/ml single use): 5.5%
- Efficacy of NX (NX 0.5 μg/ml): 5.5596%
- Efficacy of NX (NX 0.6 μg/ml): 6.4726%
- Efficacy of NX (NX 0.7 μg/ml): 7.7324%
- Efficacy of NX (NX 0.8 μg/ml): 9.3724%
- Efficacy of NX (NX 0.9 μg/ml): 11.4093%
- Inhibition rate (NX 1 μg/ml single use): 14%
- Efficacy of NX (NX 1 μg/ml): 13.8409%
- Efficacy of NX (NX 1.2 μg/ml): 19.7842%
- Efficacy of NX (NX 1.4 μg/ml): 26.8326%
- Efficacy of NX (NX 1.6 μg/ml): 34.4514%
- Efficacy of NX (NX 1.8 μg/ml): 42.0953%
- Inhibition rate (NX 2 μg/ml single use): 49.2%
- Efficacy of NX (NX 2 μg/ml): 49.3297%
- Efficacy of NX (NX 2.4 μg/ml): 61.6284%
- Efficacy of NX (NX 2.8 μg/ml): 70.7302%
- Efficacy of NX (NX 3.2 μg/ml): 77.1469%
- Efficacy of NX (NX 3.6 μg/ml): 81.6125%
- Inhibition rate (NX 4 μg/ml single use): 84.9%
- Efficacy of NX (NX 4 μg/ml): 84.7367%
- Efficacy of NX (NX 5 μg/ml): 89.1832%
- Efficacy of NX (NX 6 μg/ml): 91.2729%
- Efficacy of NX (NX 7 μg/ml): 92.3603%
- Inhibition rate (NX 8 μg/ml single use): 92.9%
- Efficacy of NX (NX 8 μg/ml): 92.9754%
- Efficacy of NX (NX 10 μg/ml): 93.5845%
- Efficacy of NX (NX 12 μg/ml): 93.8519%
- Efficacy of NX (NX 14 μg/ml): 93.9866%
- Inhibition rate (NX 16 μg/ml single use): 94.1%
- Efficacy of NX (NX 16 μg/ml): 94.0615%
- NX dose limits of the additive effect (TX fixed dose 2 ng/ml): 2.1229−4.5777 μg/ml

Structure (SMILES): CC(=O)O[C@H]1C(=O)[C@@]2(C)[C@H]([C@H](OC(=O)c3ccccc3)[C@]3(O)C[C@H](OC(=O)[C@H](O)[C@@H](NC(=O)c4ccccc4)c4ccccc4)C(C)=C1C3(C)C)[C@]1(OC(C)=O)CO[C@@H]1C[C@@H]2O [TX, Taxol]
- inhibition at 0.0005 µg/mL (Homo sapiens, HepG2, TX 0.5 ng/ml single use, read-out: Inhibition rate): 4.5%
- inhibition at 0.001 µg/mL (Homo sapiens, HepG2, TX 1 ng/ml single use, read-out: Inhibition rate): 14.1%
- inhibition at 0.002 µg/mL (Homo sapiens, HepG2, TX 2 ng/ml single use, read-out: Inhibition rate): 32.5%
- inhibition at 0.004 µg/mL (Homo sapiens, HepG2, TX 4 ng/ml single use, read-out: Inhibition rate): 59.3%
- inhibition at 0.008 µg/mL (Homo sapiens, HepG2, TX 8 ng/ml single use, read-out: Inhibition rate): 80.3%
- inhibition at 0.016 µg/mL (Homo sapiens, HepG2, TX 16 ng/ml single use, read-out: Inhibition rate): 87.4%
- Efficacy of TX (TX 0.5 ng/ml): 4.9763%
- Efficacy of TX (TX 0.6 ng/ml): 6.4296%
- Efficacy of TX (TX 0.7 ng/ml): 8.0213%
- Efficacy of TX (TX 0.8 ng/ml): 9.7270%
- Efficacy of TX (TX 0.9 ng/ml): 11.5241%
- Efficacy of TX (TX 1 ng/ml): 13.3922%
- Efficacy of TX (TX 1.2 ng/ml): 17.2688%
- Efficacy of TX (TX 1.4 ng/ml): 21.2305%
- Efficacy of TX (TX 1.6 ng/ml): 25.1792%
- Efficacy of TX (TX 1.8 ng/ml): 29.0423%
- Efficacy of TX (TX 2 ng/ml): 32.7687%
- Efficacy of TX (TX 2.4 ng/ml): 39.6901%
- Efficacy of TX (TX 2.8 ng/ml): 45.8191%
- Efficacy of TX (TX 3.2 ng/ml): 51.1569%
- Efficacy of TX (TX 3.6 ng/ml): 55.7657%
- Efficacy of TX (TX 4 ng/ml): 59.7311%
- Efficacy of TX (TX 5 ng/ml): 67.3956%
- Efficacy of TX (TX 6 ng/ml): 72.7395%
- Efficacy of TX (TX 7 ng/ml): 76.5600%
- Efficacy of TX (TX 8 ng/ml): 79.3653%
- Efficacy of TX (TX 10 ng/ml): 83.1039%
- Efficacy of TX (TX 12 ng/ml): 85.4029%
- Efficacy of TX (TX 14 ng/ml): 86.9144%
- Efficacy of TX (TX 16 ng/ml): 87.9614%
